Consider 46 compounds from paper PMC7539012, “Hyperphosphorylated tau aggregation and cytotoxicity modulators screen identified prescription drugs linked to Alzheimer's disease and cognitive functions” (Scientific Reports, 2020).

Structures can show the parent of a compound that is named as a salt. *1 amine or outer side, *2 acyl side, *3 side chain or, on linkers, in order; H or OH if unused. Where a SMILES comes first, the peptide text is derived from it. Bridges are numbered along the chain shown (N, C = ends). [ ]: non-standard residue; d: D form. The star is where a group is joined. X1 = NC1=N[C@@H](O)C[C@H]([C@H](N[*:1])C(=O)[*:2])N1; ΔAla(Z-3-ureido) = NC(=O)N/C=C(\N)C(=O)O; β3hOrn = NCCC[C@H](N)CC(=O)*; Dap = NC[C@H](N)C(=O)O

One test relates to T1, 1N4R p-tau.
T1 construct: made in house; host or cells: E. coli (PIMAX system)
Put plainly: p-tau aggregation modulator screen of 1280-compound library (ThS fluorescence net change over 16 h). Set-up: key to PTAI>3SD: *: PTAI>3SD.
Settings: not given
The format is biochemical.
As to `Oc1c(Cl)cc(Cl)c(Cl)c1Cc1c(O)c(Cl)cc(Cl)c1Cl` [Hexachlorophene, hexachlorophene], the “PTAI>3SD” value was “*” and the ThS net change amounted to 74.

On to `Cc1cc(C(C)(C)C)cc(C)c1CC1=NCCN1` [Xylometazoline hydrochloride], for which the ThS net change worked out at 295.

In turn, `CN(C)C/C=C(\c1ccc(Br)cc1)c1cccnc1.Cl.Cl.O` [Zimelidine dihydrochloride monohydrate] displayed a ThS net change of 325.

For Beta-Escin, the ThS net change came out at 471.

For Hydralazine hydrochloride, the ThS net change turned out to be 214.

Compound Lymecycline came in with a ThS net change of 312.

In turn, Merbromin showed a ThS net change of 306.

With Tropisetron HCl, the ThS net change was 428.

Staying with this test, now noted: 30 µM compound, 6 µM p-tau, 16 h.
As to `CC/C(=C(/CC)c1ccc(O)cc1)c1ccc(O)cc1` [diethylstilbestrol, reference compound], the “effect on p-tau aggregation in pilot screen” value is given as “none of them affected p-tau aggregation”.

Regarding `CC/C(=C(\c1ccccc1)c1ccc(OCCN(C)C)cc1)c1ccccc1` [tamoxifen, reference compound], the “effect on p-tau aggregation in pilot screen” value is reported as “none of them affected p-tau aggregation”.

Staying with this test, now noted: 1280-compound library screen; ThS fluorescence net change over 16 h.
Turning to `O=C(CCCCCCC(=O)Nc1ccccc1)NO` [Vorinostat], the ThS net change was 398.

For `Nc1ccn([C@H]2CC[C@@H](CO)O2)c(=O)n1` [Zalcitabine], the ThS net change worked out at 410.

The compound `CC(c1cc2ccccc2s1)N(O)C(N)=O` (stereo not drawn) [Zileuton] yielded a ThS net change of 410.

Compound `CN(C)CCOC1=Cc2ccccc2Sc2ccc(Cl)cc21` [Zotepine] yielded a ThS net change of 388.

The compound `Cl.Cl.OCCN1CCN(CC/C=C2/c3ccccc3Sc3ccc(Cl)cc32)CC1` [Zuclopenthixol dihydrochloride] yielded a ThS net change of 398.

`CC/C(=C(/CC)c1ccc(O)cc1)c1ccc(O)cc1` [diethylstilbestrol, reference compound] came in with a ThS net change of 406.

Consider Minoxidil, for which the ThS net change turned out to be 412.

Still in this test, the particulars now being: 1280-compound library screen; […].
Compound `O=P(O)(O)C(O)(Cn1ccnc1)P(=O)(O)O` [Zoledronic acid hydrate] displayed a ThS net change of 398.

In turn, `CN1CCN(C(=O)OC2c3nccnc3C(=O)N2c2ccc(Cl)cn2)CC1` (stereo not drawn) [Zopiclone] registered a ThS net change of 407.

As to Molsidomine, the ThS net change is listed as 401.

Staying with this test, now noted: flag: p-tau aggregation inhibitor, ThS net change more than 3 SD from mean.
In the case of `COC(=O)C1=C(C)NC(C)=C(C(=O)OC)C1c1ccccc1[N+](=O)[O-]` [Nifedipine, nifedipine, reference compound], the “PTAI>3SD” value was “*”.

The test is the same for the next values; noted with them: library screen, ThS fluorescence net change over 16 h with p-tau.
The compound `COC(=O)C1=C(C)NC(C)=C(C(=O)OC)C1c1ccccc1[N+](=O)[O-]` [Nifedipine, nifedipine, reference compound] came in with a ThS net change of -97.

`O=C1Cc2cc(CCN3CCN(c4nsc5ccccc45)CC3)c(Cl)cc2N1` [Ziprasidone Hydrochloride] registered a ThS net change of 293.

The same test, now with this note: p-tau aggregation modulator screen of 1280-compound library; ThS fluorescence net change.
Compound `CC[C@]12CCCN3CCc4c(n(c5ccccc45)[C@@](O)(C(=O)OC)C1)[C@@H]32` [Vincamine] registered a ThS net change of 348.

Regarding `CCOC(=O)C1=C[C@]2(CC)CCCN3CCc4c(n1c1ccccc41)[C@@H]32` [Vinpocetine], the ThS net change was 370.

In the case of `O=C(NCCNCC(O)COc1ccc(O)cc1)N1CCOCC1` (stereo not drawn) [Xamoterol hemifumarate], the ThS net change was found to be 378.

Consider `CCCOc1ccccc1-c1nc2nn[nH]c2c(=O)[nH]1` [Zaprinast], for which the ThS net change was 335.

With `Cc1cc(CC(=O)[O-])n(C)c1C(=O)c1ccc(Cl)cc1.[Na+]` [Zomepirac sodium salt], the ThS net change came out at 356.

In turn, `NS(=O)(=O)Cc1noc2ccccc12` [Zonisamide] displayed a ThS net change of 341.

Staying with this test, now noted: p-tau aggregation modulator screen of 1280-compound library; […].
As to `Cc1cccc(C)c1N=C1NCCCS1` [Xylazine], the ThS net change was determined as 366.

Compound `CCN(C(C)=O)c1cccc(-c2ccnc3c(C#N)cnn23)c1` [Zaleplon] came in with a ThS net change of 368.

For Deoxycorticosterone, the ThS net change came out at 346.

The test is the same for the next values; noted with them: p-tau aggregation modulator screen of the compound library, ThS fluorescence net change.
Compound `NCCC[C@H](N)CC(=O)N[C@H]1CNC(=O)[C@H]([C@H]2C[C@H](O)N=C(N)N2)NC(=O)/C(=C/NC(N)=O)NC(=O)[C@H](CO)NC(=O)[C@H](CO)NC1=O.O=S(=O)(O)O` [Viomycin sulfate] (β3hOrn-[Dap]SS[ΔAla(Z-3-ureido)][X1]; lactam 1-C) had a ThS net change of 453.

Turning to `C[C@@H](c1ncncc1F)[C@](O)(Cn1cncn1)c1ccc(F)cc1F` [Voriconazole], the ThS net change amounted to 435.

Take `CC(=O)CC(c1ccccc1)c1c(O)c2ccccc2oc1=O` (stereo not drawn) [Warfarin]: the ThS net change worked out at 413.

`COC(=O)[C@@H]1[C@H]2C[C@H]3c4[nH]c5ccccc5c4CCN3C[C@@H]2CC[C@@H]1O` [Yohimbine hydrochloride] returned a ThS net change of 418.

For `COc1cc(C(=O)NS(=O)(=O)c2ccccc2C)ccc1Cc1cn(C)c2ccc(NC(=O)OC3CCCC3)cc12` [Zafirlukast], the ThS net change came out at 549.

On to `COc1cc(-c2ccc(=O)[nH]n2)ccc1OC(F)F` [Zardaverine], for which the ThS net change amounted to 454.

On to `Cc1cn([C@H]2C[C@H](N=[N+]=[N-])[C@@H](CO)O2)c(=O)[nH]c1=O` [Zidovudine, AZT], for which the ThS net change is 448.

The compound Josamycin came in with a ThS net change of 446.

Turning to Olmesartan, the ThS net change was determined as 482.

Regarding Tyloxapol, the ThS net change amounted to 577.

The target in the next test is T2, p-tau (Homo sapiens, UniProt P10636).
T2 construct: made in house; host or cells: E. coli (PIMAX system)
T2 sequence (P10636 1-412 isoform P10636-7): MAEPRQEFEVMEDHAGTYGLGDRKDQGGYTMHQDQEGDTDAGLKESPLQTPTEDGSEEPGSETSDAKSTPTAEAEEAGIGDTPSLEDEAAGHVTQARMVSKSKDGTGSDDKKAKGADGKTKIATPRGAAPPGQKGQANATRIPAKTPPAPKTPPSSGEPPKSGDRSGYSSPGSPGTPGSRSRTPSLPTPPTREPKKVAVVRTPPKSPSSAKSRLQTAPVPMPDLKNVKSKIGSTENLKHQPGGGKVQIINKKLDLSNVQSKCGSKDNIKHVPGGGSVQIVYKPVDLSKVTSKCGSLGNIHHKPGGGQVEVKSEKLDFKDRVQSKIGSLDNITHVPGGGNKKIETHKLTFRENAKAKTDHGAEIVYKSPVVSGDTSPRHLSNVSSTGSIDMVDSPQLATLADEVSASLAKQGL
As to the kind of experiment: p-tau aggregation assay, dose response (ThS fluorescence, inducer-free). Type of test: biochemical.
Settings: not given
As for the experimental part: Aggregation of 6-µM p-tau under the influence of 30 µM of each of the library compounds or a DMSO vehicle control was monitored in 384-well plates every 10 min for ThS fluorescence changes over 16 h. To assess the quality of the high-throughput p-tau aggregation reactions, we used the T0 and T16hr ThS fluorescence units of no-compound control reactions to calculate the Z′-factor and coefficient of variation (CV), two commonly used criteria for robustness of high-throughput screens (HTS)[62]. A Z′-factor greater than 0.5 and CV smaller than 10% indicate robustness. […] To identify compounds with significant p-tau aggregation modulation, the net change of ThS fluorescence was calculated from all reactions (see Supplemental Table 1 for complete listing).
Aggregation of 6 µM of p-tau was done in the presence of the indicated concentrations of either compound. […] P-tau aggregation reactions with the C291S C322S (C/S) mutant p-tau were done in the presence of the indicated amounts of either compound. Shown are net changes of ThS over 16 h.
Given the tremendous socioeconomical burdens of AD, measures that prevent or delay the onset of the devastating neurodegeneration of AD will be highly impactful. If hyperphosphorylated tau-inflicted neuronal damages are an underpinning for AD and other tauopathies, enhancers of p-tau aggregation (PTAEs) may be risk factors for neurodegeneration. […] Prednicarbate is a synthetic corticosteroid for dermatological use, and carmofur (1-hexylcarbamoyl-5-fluorouracil) is an anti-neoplastic pyrimidine analogue. […] BZDs are among the most widely prescribed medication, in particular to the elderly, for depression and insomnia[70],[71]. We hypothesized that certain BZDs acted as a PTAE to potentiate p-tau aggregation and cytotoxicity. […] We therefore randomly picked nine prescription BZDs for p-tau aggregation assessment (Fig. 6; see Supplemental Fig. 5 for chemical structures). To 6-µM p-tau aggregation reactions, increasing doses of each of these BZDs were added.
Prednicarbate, a synthetic steroid, served as a PTAE control (yellow bars).
The aggregation assays over the course of this project have been done with multi-plate readers from different sources.
A common mix of 6 µM p-tau, 20 mM Tris pH 7.4, 1 mM DTT, and 20 µM ThS was assembled and dispensed to 384-well low-volume plates (10 µl per well) using BioTek EL406 Washer, followed by the addition of 150 nl of the Prestwick Library compounds (final concentration of 30 µM per well) or DMSO in a Beckman Coulter Biomek FX^P workstation. Each plate was covered with an Optical Adhesive Film and incubated at 37 °C for about 10 min. ThS fluorescence was measured every 10 min at 440/490 nm for 16 h by Biotek Synergy Neo Plate Reader. […] The real-time kinetics of ThS signals were collected using Gen5 software.
As usually defined, the EC50 is the concentration giving half of the maximal effect. For `Oc1c(Cl)cc(Cl)c(Cl)c1Cc1c(O)c(Cl)cc(Cl)c1Cl` [Hexachlorophene, hexachlorophene], the EC50 was 17.8 µM.

The same test, now with this note: 6 µM p-tau, 6.25-150 µM benzodiazepine.
`CN1C(=O)CN=C(c2ccccc2)c2cc(Cl)ccc21` [diazepam]: the “effect on p-tau aggregation (16-h net change of ThS fluorescence)” value is “enhanced p-tau aggregation in a dose-dependent manner”.

Regarding `CCN(CC)CCN1C(=O)CN=C(c2ccccc2F)c2cc(Cl)ccc21` [flurazepam], the “effect on p-tau aggregation (16-h net change of ThS fluorescence)” value was “enhanced p-tau aggregation in a dose-dependent manner”.

On to `CN1C(=O)CN=C(c2ccccc2)c2cc([N+](=O)[O-])ccc21` [nimetazepam], for which the “effect on p-tau aggregation (16-h net change of ThS fluorescence)” value is listed as “did not”.

For `O=C1CN=C(c2ccccc2)c2cc(Cl)ccc2N1` [nordiazepam], the “effect on p-tau aggregation (16-h net change of ThS fluorescence)” value is “did not”.

With `O=C1Nc2ccc(Cl)cc2C(c2ccccc2)=NC1O` (stereo not drawn) [oxazepam], the “effect on p-tau aggregation (16-h net change of ThS fluorescence)” value is given as “did not”.

With `CN1C(=O)C(O)N=C(c2ccccc2)c2cc(Cl)ccc21` (stereo not drawn) [temazepam], the “effect on p-tau aggregation (16-h net change of ThS fluorescence)” value is reported as “enhanced p-tau aggregation in a dose-dependent manner”.

Staying with this test, now noted: 6 µM p-tau, ThS fluorescence.
Consider `COC(=O)C1=C(C)NC(C)=C(C(=O)OC)C1c1ccccc1[N+](=O)[O-]` [Nifedipine, nifedipine, reference compound], for which the EC50 amounted to 24.3 µM.
